Consider one compound from patent publication US11629141B2, “Proteasome inhibitors and uses thereof” (CORNELL UNIVERSITY, priority 2015, dated 2023).

The test system of one test is P. berghei. The test can be described thus: Killing of P. berghei sporozoite stage in HepG2 cells. The following applies: Plasmodium berghei. It is filed as cell-based.
Another test has as its system Pf20S β5. The test can be described thus: Labeling of Pf20S active subunits by activity probe MV151 in Pf lysates. It is filed as biochemical, P. falciparum. As to conditions: 1 hour with inhibitor, then MV151 (2 μM) 1 hour. The method, then:
Pf lysates were incubated with inhibitors at indicated concentrations for 1 hour prior to incubation with MV151 (2 μM) for an additional hour. SDS pages were scanned on a Typhoon fluorescent scanner. […] BTZ was used as a positive control.

A further test concerns Plasmodium falciparum. The test can be described thus: Growth of Plasmodium falciparum in red blood cells (SYBR Green, 72 hours). It is filed as cell-based. Here is the method:
Continuous in vitro cultures of Plasmodium falciparum: were maintained in human red blood cells (RBC) diluted to a hematocrit of 5% in RPMI 1640 medium with HEPES and Hypoxanthine and completed with 0.5% Albumax II (Invitrogen), 0.25% sodium bicarbonate, and 0.1 mg/ml gentamicin. Parasites were incubated at 37° C. in a gas mixture of 5% oxygen, 5% carbon dioxide, and 90% nitrogen.
Parasite sensitivity to novel compounds were determined using a SYBR Green (Invitrogen S1046) drug assay protocol. P. falciparum of various clinic stains were cultured with compounds at concentrations in a series of dilution in a clear, sterile 96-well plate for 72 hours. Subsequently, 150 μl of the cultures were transferred to a black 96-well plate and placed in the freezer for red blood cell lysis. The plates were thawed and suspended in a Sybr Green Lysis buffer. GraphPad Prism was used to analyze the raw data collected […]. Drug concentrations were converted to logarithms, normalized, and then curve fitted by non-linear regression to obtain EC50 values.
Plasmodium falciparum: parasites were cultured in human red cells. Drug assays were run in 96 well plates at a total volume of 200 μl. Assays were set up at a starting parasitemia (percent of infected red cells) of 0.5%. Test compounds were plated at concentrations of 2778 nM to 0.4 nM. The test plates were grown under standard low oxygen conditions at 37° C. for 72 hours. At that time the plates were prepared for growth determination, first the plates were frozen and thawed to lyse the red blood cells, 150 μl of the lysed thawed culture was transferred to a black 96 well plate, and mixed in a lysis buffer with SYBR green DNA dye. The fluorescence of each well was recorded in a plate reader with excitation wavelength 490 nm and emission wavelength 530 nm and normalized relative to DMSO control. The EC50s were determined using Prism software.

The target in a further test is T1, hu i-20S β5i (Homo sapiens, UniProt P28062).
T1 construct: purchased Boston Biochem Inc
The test can be described thus: Kinetic analysis, substrate titration of hu i-20S steady state velocities. It is filed as biochemical. The method, then:
FIGS. 1A-1E are graphs showing inhibition modality of PKS21004 against human proteasomes. Washout of c-20S from the preincubated c-20S and […] to recover the β5c activity (FIG. 1A). Substrate titration of hu i-20S (FIG. 1B) and c-20S (FIG. 1D) steady state velocities in the presence of PKS21004 at the concentrations indicated next to each curve. Data as in (FIG. 1B) were plotted double reciprocal in (FIG. 1C), and (FIG. 1D) in (FIG. 1E).
A washout experiment was used to confirm the reversibility of this class of proteasome inhibitors, as expected from their non-covalent chemistry.

A further test concerns Pf Gametocytes. The test can be described thus: Gametocyte killing assay (DilC1(5), flow cytometry). It is filed as cell-based. The following applies: Plasmodium falciparum; NF54 peg4-tdTomato, 72 hour incubation; read-out: EC50 against Pf Gametocytes. Here is the method:
Asexual replication of NF54 peg4-tdTomato parasites was eliminated by treating with 50 mM GlcNAc and 20 U/mL Heparin for 3 days. NF54 peg4-tdTomato parasites then were maintained using standard culture techniques. Gametocytes were induced synchronously according to Fivelman et al., “Improved Synchronous Production of Plasmodium Falciparum Gametocytes in Vitro,” Mol Biochemo Parasitol. 154(1):119-123 (2007), which is hereby incorporated by reference in its entirety. Asexual replication was eliminated by treating with 50 mM GlcNAc for 3 days. Gametocyte killing assays were setup on days 5 and 10 in triplicate 96-well format at 1% hematocrit and 2% gametocytemia. Compounds were setup in triplicate and serially diluted 3-fold. In addition, 6 solvent controls (DMSO) were distributed evenly across the plate. Following a 72 hour incubation, Stage III-IV (Day 5-7) and Stage IV-V (Day 10-12), (start the incubation in the afternoon on Day 5 and Day 10, take out plate for assay on Day8 and Day13 afternoon) cultures were stained with 16 nM Hoechst 33342 and 50 nM DilC1(5) for 30 min at 37 C. Using a Cytek DxP12 flow cytometer, gametocytemia was determined by gating for DNA+, hemozoin-high cells and gametocyte viability was inferred based on mitochondrial membrane potential-dependent accumulation of DilC1(5) for 2000-3000 gametocytes (Tanaka et al., “Potent Plasmodium Falciparum Gametocytocidal Activity of Diaminonaphthoquinones, Lead Antimalarial Chemotypes Identified in an Antimalarial Compound Screen,” Antimicrob. Agents Chemother. 2015, 59:1389 (2015), which is hereby incorporated by reference in its entirety). Mean DilC1(5) signal was normalized to solvent control and the overall minimum and used to calculate the EC50 (FIG. 3 and Table 4).
A general note: Flow cytometry measures light scatter and fluorescence of single cells or particles in a stream.

The next test deals with T2, β1i (Homo sapiens, UniProt P28065).
T2 construct: purchased Boston Biochem Inc
The test can be described thus: Inhibition of β1i activity. It is filed as biochemical. As to conditions: no inhibition <33 μM. The method, then:
(§1) The foregoing features of these AsnEDA encouraged a further round of SAR studies (Table 5) based on varying the carboxylic acid at the ethylenediamine, the N-cap at the Asn, and the side chain of the Asn, based on PKS21004. All compounds listed in the Table 5 were synthesized as described in Examples 6-77. All final compounds were confirmed by NMR and HRMS. IC50s of all compounds against β5i and β5c (Table 5), β1i, β2i, β1c and β2c were determined following a reported method (Lin et al., “N,C-Capped Dipeptides With Selectivity for Mycobacterial Proteasome Over Human Proteasomes: Role of S3 and S1Binding Pockets,” J Am Chem Soc. 135:9968-9971 (2013), which is hereby incorporated by reference in its entirety). […] The [1,1′-biphenyl]-3-carboxamide of PKS21004 was then modified with the following substituents: 4′-fluoro (PKS21026), 4′-cyano (PKS21028), 4-fluoro (PKS21196), 4,3′-difluoro (PKS21195) and 4,2′-difluoro (PKS21187).

The next test addresses T3, β2c (Homo sapiens, UniProt Q99436).
T3 construct: purchased Boston Biochem Inc
Description: Inhibition of β2c activity. The following applies: no inhibition <33 μM. It is filed as biochemical. Here is the method: as §1

Entries after “also recorded” stand apart in the source; their conditions may differ. Read-outs that look alike come from different tables or passages of the source.

Broadly, the Ki is the dissociation constant of the complex between target and ligand, obtained from inhibition or displacement. Read a low Ki as higher affinity. With `CC(C)(C)NC(=O)C[C@H](NC(=O)CCc1ccccc1)C(=O)NCCNC(=O)c1cccc(-c2ccccc2)c1` [PKS21004], the EC50 in the test on P. berghei (read-out: EC50 killing of P. berghei, compound & sporozoites incubated with HepG2, media replaced after 14 hours) came to 21 nM; in the test on P. berghei (compound & sporozoites incubated with HepG2, media replaced after 6 hours, read-out: EC50 killing of P. berghei, 6 hours), 41 nM; in the test on P. berghei (sporozoites pre-treated 30 minutes on ice, added to HepG2, media replaced after 4 hours, read-out: EC50 killing of P. berghei, sporozoites pre-treated (P/T)), 157 nM; in the test with Plasmodium falciparum (D6, Erythrocyte, read-out: EC50s against P. falciparum strain D6), 4 nM; in the test with Plasmodium falciparum (DD2, Erythrocyte, read-out: EC50s against P. falciparum strain Dd2), 4.8 nM; with Plasmodium falciparum (Erythrocyte, P.f. 3D7, growth in red blood cells, read-out: EC50 (nM) (P.f.)), 4.6 nM. Further, the EC50 in the test with Plasmodium falciparum (Erythrocyte, read-out: EC50s against P. falciparum strain IPC 3663) was determined as 6 nM; in the test on Plasmodium falciparum (Erythrocyte, read-out: EC50s against P. falciparum strain IPC 4884) it was 5.2 nM; in the test with Plasmodium falciparum (Erythrocyte, read-out: EC50s against P. falciparum strain IPC 4912), 5.8 nM; with Plasmodium falciparum (Erythrocyte, read-out: EC50s against P. falciparum strain IPC 5188) it was 1.5 nM; with Plasmodium falciparum (Erythrocyte, read-out: EC50s against P. falciparum strain Sb1-a6), 4.8 nM; with Plasmodium falciparum (Erythrocyte, read-out: EC50s against P. falciparum strain V1S), 1.7 nM. Also, the EC50 turned out to be 10 nM in the test with Plasmodium falciparum (HB3, Erythrocyte, read-out: EC50s against P. falciparum strain HB3) and 50 nM in the test with Pf Gametocytes. Moreover, the “labeling of Pf20S β5 by MV151” value in the test on Pf20S β5 is on record as “block labeling; also recorded: inhibited the labeling”. Also, at hu i-20S β5i, the affinity, expressed as Ki, was 77 nM. In addition, the “α for i-20S (β5i)” value at hu i-20S β5i (fit to equation for noncompetitive inhibitors) was 0.28 and ≈ 0.28. In addition, the “modality of inhibition of β5i” value on hu i-20S β5i (with respect to substrate) is listed as “noncompetitive inhibitor”. In addition, the “IC50 against β1i” value at β1i is on record as “no inhibition”. For the same compound, the “IC50 against β2c” value on β2c was “no inhibition”.
